For 1 compound, IC50 results are on record in article PMC7084345, “Differential Inhibitory Actions of Multitargeted Tyrosine Kinase Inhibitors on Different Ionic Current Types in Cardiomyocytes” (International Journal of Molecular Sciences, 2020).

In the assay the target is T1, KV7.1 (KCNQ1) channel, IK(S) (Rattus norvegicus, UniProt Q9Z0N7).
T1 construct: native IK(S) in H9c2 cells
T1 sequence (Q9Z0N7 1-669): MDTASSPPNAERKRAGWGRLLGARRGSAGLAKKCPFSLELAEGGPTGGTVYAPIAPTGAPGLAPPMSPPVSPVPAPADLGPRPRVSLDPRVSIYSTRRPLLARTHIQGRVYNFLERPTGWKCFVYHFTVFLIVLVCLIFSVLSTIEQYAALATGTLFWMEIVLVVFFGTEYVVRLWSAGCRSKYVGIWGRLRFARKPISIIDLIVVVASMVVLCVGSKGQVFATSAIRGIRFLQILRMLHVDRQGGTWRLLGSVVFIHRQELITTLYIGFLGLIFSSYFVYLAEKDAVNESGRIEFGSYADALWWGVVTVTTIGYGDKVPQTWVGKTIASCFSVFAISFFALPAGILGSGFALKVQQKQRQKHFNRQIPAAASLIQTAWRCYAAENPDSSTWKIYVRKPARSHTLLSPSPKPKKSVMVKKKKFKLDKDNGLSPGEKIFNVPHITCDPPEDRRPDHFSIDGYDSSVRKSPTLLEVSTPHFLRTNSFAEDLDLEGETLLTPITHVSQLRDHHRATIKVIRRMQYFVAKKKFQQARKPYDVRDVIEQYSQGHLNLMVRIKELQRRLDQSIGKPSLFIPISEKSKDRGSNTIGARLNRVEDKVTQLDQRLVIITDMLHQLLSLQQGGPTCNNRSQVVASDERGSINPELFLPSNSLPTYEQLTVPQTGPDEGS
In words: whole-cell patch clamp of native IK(S) in H9c2 cells. It counts as cell-based. (In general: Patch clamp records ionic current or voltage across a cell membrane.)

Take `CS(=O)(=O)CCNCc1ccc(-c2ccc3ncnc(Nc4ccc(OCc5cccc(F)c5)c(Cl)c4)c3c2)o1` [LAP, lapatinib]: the IC50 is 1840 nM. This lies in the single-digit micromolar range.

One may read the IC50 as the point on the concentration scale where inhibition reaches its midpoint.
